Laboratory results as given in PubChem BioAssay AID602235 (The Scripps Research Institute Molecular Screening Center, 2012).
Calls of active or inactive are those of the source. No rule for the calls is given here.

Each molecule was assayed against Nuclear receptor coactivator 1 (Homo sapiens) (UniProt Q15788) (assay: inhibition of NCOA1 transcriptional coactivation in cells – cell-based, luciferase reporter, luminescence, dose response (AID 602235;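 also: cells transfected with pGL4.31 reporter plus pBIND-SRC1 vector; potency is for inhibitors that lower SRC1 reporter luminescence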)). Conditions: cell-based SRC1 luciferase reporter.
Sequence of Nuclear receptor coactivator 1 (Homo sapiens) (Q15788 whole entry, looked up): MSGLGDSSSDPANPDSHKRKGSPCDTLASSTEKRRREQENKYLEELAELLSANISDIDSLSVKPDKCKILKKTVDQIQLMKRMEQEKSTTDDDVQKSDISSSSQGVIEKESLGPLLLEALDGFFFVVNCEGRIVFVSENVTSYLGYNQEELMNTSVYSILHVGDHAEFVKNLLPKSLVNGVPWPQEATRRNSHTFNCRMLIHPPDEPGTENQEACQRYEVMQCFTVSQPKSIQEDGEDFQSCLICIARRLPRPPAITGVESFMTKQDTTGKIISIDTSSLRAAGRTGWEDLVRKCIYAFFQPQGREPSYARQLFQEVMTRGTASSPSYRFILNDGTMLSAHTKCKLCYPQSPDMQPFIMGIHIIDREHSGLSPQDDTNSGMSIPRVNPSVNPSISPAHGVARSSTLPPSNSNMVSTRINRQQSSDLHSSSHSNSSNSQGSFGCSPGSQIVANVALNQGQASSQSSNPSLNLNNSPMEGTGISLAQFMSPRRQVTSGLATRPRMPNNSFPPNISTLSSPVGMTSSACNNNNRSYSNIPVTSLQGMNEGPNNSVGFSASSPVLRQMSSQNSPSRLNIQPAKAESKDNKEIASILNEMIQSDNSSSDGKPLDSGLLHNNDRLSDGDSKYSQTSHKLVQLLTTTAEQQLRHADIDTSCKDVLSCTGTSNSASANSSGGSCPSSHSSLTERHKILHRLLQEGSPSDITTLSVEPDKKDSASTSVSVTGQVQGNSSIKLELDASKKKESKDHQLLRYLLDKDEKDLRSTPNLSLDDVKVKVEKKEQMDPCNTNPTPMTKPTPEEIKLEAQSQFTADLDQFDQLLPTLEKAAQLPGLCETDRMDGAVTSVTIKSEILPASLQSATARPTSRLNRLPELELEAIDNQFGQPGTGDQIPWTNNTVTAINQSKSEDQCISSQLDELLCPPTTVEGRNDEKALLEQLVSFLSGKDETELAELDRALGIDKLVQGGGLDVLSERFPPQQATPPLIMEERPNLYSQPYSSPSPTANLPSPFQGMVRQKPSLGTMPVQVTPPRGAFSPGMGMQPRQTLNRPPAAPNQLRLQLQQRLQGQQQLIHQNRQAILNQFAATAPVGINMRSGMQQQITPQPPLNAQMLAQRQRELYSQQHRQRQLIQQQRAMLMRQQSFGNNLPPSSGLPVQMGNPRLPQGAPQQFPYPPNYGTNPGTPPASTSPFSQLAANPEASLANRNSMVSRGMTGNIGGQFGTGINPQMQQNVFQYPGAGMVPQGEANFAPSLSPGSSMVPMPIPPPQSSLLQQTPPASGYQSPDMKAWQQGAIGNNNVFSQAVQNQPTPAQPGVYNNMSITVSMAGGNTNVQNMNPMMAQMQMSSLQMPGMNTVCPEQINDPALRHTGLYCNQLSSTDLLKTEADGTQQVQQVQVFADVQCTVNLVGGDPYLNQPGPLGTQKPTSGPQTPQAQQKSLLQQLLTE
In the case of Cc1ccc(O)c(C(=O)c2cnn(C(=O)COc3ccc(Cl)cc3)c2)c1, the IC50 is reported as “inactive”. For Cc1ccc(NC(=O)C2CCN(c3ncnc4sc(C)c(C)c34)CC2)cc1S(=O)(=O)N(C)C, the IC50 was “inactive”. In the case of CC(=O)C1=C(C)NC2=C(C(=O)CC(C)(C)C2)C1C (stereo not drawn), the IC50 is reported as “inactive”. In the case of O=C(N/N=C/c1ccc(O)cc1O)/C(=C/c1ccccc1)CCO, the IC50 is reported as “inactive”. For CCOc1cccc(/C=N/NC(=O)c2cc(C3CC3)[nH]n2)c1O, the IC50 was 8.38 µM. With Cc1ccc(C)c(NC(=O)c2ccccc2NS(=O)(=O)c2cc([N+](=O)[O-])ccc2C)c1 the IC50 was 4.81 µM. With Cc1cccc(C)c1-c1ccc(CN2C(CC(C)C)C(=O)N(Cc3cn(CC4CCCCC4)nn3)CCS2(=O)=O)cc1 (stereo not drawn) the IC50 was “inactive”. COc1ccccc1NS(=O)(=O)c1cccc(NC(=O)c2cncc(Br)c2)c1 was tested, and the IC50 was “inactive”. For Cn1c(=O)c2[nH]c(COc3ccc(C(C)(C)C)cc3)nc2n(C)c1=O, the IC50 was “inactive”. Fc1ccc(CSc2nnc(-c3ccncc3)o2)cc1 gave an IC50 of 6.06 µM. For COc1cc(/C=C2\CC(C(C)(C)C)C/C(=C\c3cc(OC)c(OC)c(OC)c3)C2=O)cc(OC)c1OC (stereo not drawn), the IC50 was > 35.9 µM (inactive). For CCC(=O)c1ccc(Oc2nc3c(c(=O)n(C)c(=O)n3C)n2CC)cc1, the IC50 was 7.62 µM. Molecule CNc1cccnc1C=NNC(N)=S has an IC50 of 3.45 µM. In the case of O=C(COC(=O)c1ccc[nH]c1=O)Nc1ccc(N2CCCCC2)cc1, the IC50 is reported as > 35.9 µM (inactive). Work on Cc1ccc(NC(=O)NC2CC(=O)N(c3ccc4c(c3)OCCO4)C2)cc1C (stereo not drawn) yielded an IC50 of 6 µM. Molecule COC(CN(C(=O)CCl)C(C(=O)NC1CCCCC1)c1ccccc1C)OC (stereo not drawn) has an IC50 of 9.53 µM. With COc1ccccc1N(C(=O)CCl)c1cn(C(C)=O)c2ccccc12 the IC50 was > 35.9 µM (inactive). With CCn1ccnc1CN(C)Cc1cn[nH]c1-c1ccc(F)cc1F the IC50 was “inactive”. O=C(N/N=C(\c1ccccc1)c1ccccn1)c1ccccc1Cl was tested, and the IC50 was “inactive”. In the case of O=C(CCl)NC(Cc1ccccc1)c1ccccc1 (stereo not drawn), the IC50 is reported as “inactive”. With CCN1CCN(C(=S)c2ccc(-c3ccccc3)cc2)CC1 the IC50 was > 35.9 µM (inactive). In the case of CCn1c(Oc2ccc(F)cc2)nc2c1c(=O)n(C)c(=O)n2C, the IC50 is reported as > 12 µM (inactive). With O=C(Nc1nc(-c2ccccn2)cs1)c1cccc(S(=O)(=O)N2CCOCC2)c1 the IC50 was “inactive”. In the case of O=C(CSc1nc(-c2cccs2)cc(C(F)(F)F)n1)Nc1cc(OCC(F)(F)C(F)F)cc([N+](=O)[O-])c1, the IC50 is reported as > 35.9 µM (inactive). Molecule Cn1nc(C(F)(F)F)c(C#N)c1N1CCN(c2ccc(F)cc2)CC1 has an IC50 of 9.32 µM. O=[N+]([O-])c1ccc2c(c1)-c1ccccc1C2=NO was tested, and the IC50 was “inactive”. CCN(CC)CCNC(=O)c1ccc(NC(=O)C2CCN(c3ncnc4sc(C)c(C)c34)CC2)cc1 was tested, and the IC50 was 5.4 µM. With Oc1ccc(C=NNc2ccccn2)c(O)c1 the IC50 was “inactive”. Cc1sc2ncnc(N3CCC(C(=O)N(C)CC(=O)Nc4cccc(F)c4)CC3)c2c1C was tested, and the IC50 was > 12 µM (inactive). O=C(Nc1cccnc1)c1ccc(C(=O)Nc2cccnc2)cc1 was tested, and the IC50 was > 35.9 µM (inactive). With COc1ccc(/C=C2\CC/C(=C\c3ccc(OC)c(OC)c3)C2=O)cc1OC the IC50 was > 35.9 µM (inactive). In the case of NC(=S)NN=Cc1nccc2c(N)cccc12, the IC50 is reported as “inactive”. Cn1nc(C(F)(F)F)c(C#N)c1N1CCN(c2ccccc2)CC1 gave an IC50 of 7.05 µM. For COc1ccc(Cc2nnc(SCc3ccc([N+](=O)[O-])cc3)o2)cc1, the IC50 was “inactive”. COC(=O)c1cccc2c1-c1ccccc1/C2=N/O was tested, and the IC50 was 9.71 µM. With C=C1C(=O)[C@@]23C[C@H]4[C@@H]5[C@@]6(C)CCC[C@@]57[C@@H]2[C@@H](O)[C@@H]1C[C@H]3[C@H]7N4C6 the IC50 was 3.71 µM. In the case of Cc1cccc(C)c1-n1nnnc1C(c1cccs1)N1CCC2(CC1)C(=O)NCN2c1ccccc1 (stereo not drawn), the IC50 is reported as “inactive”. For O=[N+]([O-])c1ccc(N(CCO)CCO)c2c1no[n+]2[O-], the IC50 was “inactive”. With Cc1ccc2nc(C(F)(F)F)c(C#N)c(N)c2c1 the IC50 was “inactive”. With c1cc2c(cn1)cnc1cscc12 the IC50 was “inactive”. With CC(C)(C)c1cc(C(=O)N/N=C/c2ccc(O)cc2)n(-c2ccccc2)n1 the IC50 was > 35.9 µM (inactive). Work on COc1cc2c(cc1OC)C(NC(=O)C(F)(F)F)CNC2=O (stereo not drawn) yielded an IC50 of 6.97 µM. With O=C(Nc1nc(-c2ccccn2)cs1)c1cccc(-n2cnnn2)c1 the IC50 was “inactive”. Molecule c1ccc(-c2nnc(-c3ccccn3)nc2NC2CCCCC2)cc1 has an IC50 of 5.22 µM. COc1cc2c3c([nH]c2cc1F)C(=O)NCC3 gave an IC50 of 9.54 µM. For NC(=S)NN=Cc1ccc(OC(=O)COc2cc(Cl)c(Cl)cc2Cl)cn1, the IC50 was “inactive”. Work on S=C(Nc1ccccc1)Nc1ccc(OCc2ccc(Cl)cc2Cl)cc1 yielded an IC50 of 4.26 µM. With CC(C)n1c(SCC(=O)Nc2nc3c(s2)CCCC3)nc2c1c(=O)n(C)c(=O)n2C the IC50 was “inactive”. With COc1cc2c(cc1OC)C(C)N(C(=O)c1cccc([N+](=O)[O-])c1)CC2 (stereo not drawn) the IC50 was “inactive”. For CCn1c2ccccc2c2cnc(N=CN(C)C)c(C#N)c21, the IC50 was “inactive”. With O=C(c1ccncc1)N(Cc1cc2ccccc2[nH]c1=O)C1CCCCC1 the IC50 was “inactive”. Cc1ccc(S(=O)(=O)NC(CC(C)C)C(=O)NCC(c2ccco2)N2CCCCC2)cc1 (stereo not drawn) was tested, and the IC50 was > 35.9 µM (inactive). With CCCCC(CC)COCCCN=Cc1c(O)[nH]c(=S)[nH]c1=O (stereo not drawn) the IC50 was “inactive”. In the case of COc1cccc(C2=CC(=O)CC(C)(C)C2)c1, the IC50 is reported as “inactive”. Nc1ccc(-c2cc3ccccc3oc2=O)cc1 was tested, and the IC50 was 8.96 µM. COC(=O)c1sc2cnccc2c1N was tested, and the IC50 was “inactive”. For NNC(=O)c1cc2ccccc2cc1O, the IC50 was 7.02 µM. For COc1cccc(NC(=O)CN(C)CC(=O)Nc2ccc(Cl)cc2[N+](=O)[O-])c1, the IC50 was “inactive”. In the case of O=[N+]([O-])c1cccc2c1ccc1ncccc12, the IC50 is reported as 9.46 µM. O=C(CCl)N(c1ccccc1)C1CCS(=O)(=O)C1 (stereo not drawn) gave an IC50 of 2.84 µM. CCN(C(=O)c1cccc(S(=O)(=O)N(C)C)c1)C12CC3CC(CC(C3)C1)C2 was tested, and the IC50 was > 35.9 µM (inactive). In the case of COc1ccc2c(c1)-c1c(ssc1=S)C(C)(C)N2C(=O)CSC1=NCCS1, the IC50 is reported as “inactive”. In the case of COc1cccc2c1C(=N)c1c(O)c3c(c(O)c1C2=O)CC(O)(C(C)=O)CC3OC1CC(N)C(O)C(C)O1 (stereo not drawn), the IC50 is reported as > 35.9 µM (inactive). CC[C@@]1(O)C(=O)OCc2c1cc1n(c2=O)Cc2cc3c(NC(=O)CN)cccc3nc2-1 was tested, and the IC50 was > 35.9 µM (inactive). Work on CN(C)c1ccc(Nc2ncnc3ccc(Br)cc23)cc1 yielded an IC50 of 9.96 µM. Molecule Cc1nc2c(-c3ccc(Cl)cc3)c(C)[nH]n2c(=O)c1Cc1ccccc1 has an IC50 of 9.38 µM. In the case of Cc1nc2c(-c3ccc(F)cc3)cnn2c(N)c1-c1ccccc1, the IC50 is reported as “inactive”. CCC(C)(C)n1nnnc1CN1CCC(n2c(C)nc3cc(C(F)(F)F)ccc32)CC1 was tested, and the IC50 was > 35.9 µM (inactive). With CCN(C(=O)c1cc(S(=O)(=O)N2CCCCC2)c[nH]1)c1ccc(OC)cc1 the IC50 was “inactive”. For CC(C)n1c(-c2cccnc2)nc2cnccc21, the IC50 was “inactive”. Cc1nc(N2CCC(C(N)=O)CC2)c2c(-c3cccs3)csc2n1 showed an IC50 of 8.59 µM. In the case of COc1ccc(-c2cc(=O)oc3c(C)c(O)c(CN(C)C)cc23)cc1, the IC50 is reported as “inactive”. In the case of CC1(C)Cc2c(ccc3ccccc23)C(=O)N1, the IC50 is reported as “inactive”. With O=C1NCCc2c1[nH]c1ccc([N+](=O)[O-])cc21 the IC50 was “inactive”. In the case of c1nc2sc3c(c2c2nnnn12)CCCC3, the IC50 is reported as “inactive”. With COc1ccc2c(C#N)c3ccccn3c2c1 the IC50 was “inactive”. In the case of O=C(CCn1cnc(-c2ccccc2)c1-c1ccccc1)N/N=C/c1ccccc1O, the IC50 is reported as “inactive”. For CCCCCCCC[n+]1c(C)n(-c2ccccc2)c2ccc(NC(C)=O)cc21, the IC50 was > 35.9 µM (inactive). With Cc1c(CC(=O)NCCCC(=O)O)c(=O)oc2cc3c(cc12)CCC(C)(C)O3 the IC50 was “inactive”. With O=C(N/N=C/c1coc2ccc(Cl)cc2c1=O)c1ccc(O)cc1 the IC50 was > 35.9 µM (inactive). With COc1cc(OC)c2cc(C(=O)N/N=C/c3cccc(OC)c3O)[nH]c2c1 the IC50 was “inactive”. Cc1ccc(S(=O)(=O)N2[C@@H](c3ccc(C(C)(C)C)cc3)C(C(=O)O)=CC[C@H]2c2ccc(Cl)cc2)cc1 was tested, and the IC50 was “inactive”. With CCCc1cc(C(=O)N(C)CC(=O)Nc2ccc(OCC)c(OCC)c2)sc1C the IC50 was > 35.9 µM (inactive). Cc1ccc(N=c2c([N+](=O)[O-])nn(-c3ccc4c(c3)OCCO4)n2O)cc1F was tested, and the IC50 was “inactive”. In the case of O=C(CCC(=O)Nc1ccc(Br)cc1)N/N=C/c1ccccc1O, the IC50 is reported as 4.94 µM. Molecule CN(C)C=Nc1c(C(=O)c2ccccc2)sc2nccc(N(C)C)c12 has an IC50 of 8.53 µM. For CN(c1ccc(C(=O)N2CCN(Cc3ccc4c(c3)OCO4)CC2)cc1)S(=O)(=O)c1ccccc1, the IC50 was > 35.9 µM (inactive). With CCn1c(Oc2cccc(Br)c2)nc2c1c(=O)n(C)c(=O)n2C the IC50 was “inactive”. For CC(=O)NC(c1cc(Cl)c2cccnc2c1O)C(C)C (stereo not drawn), the IC50 was > 35.9 µM (inactive). In the case of C=CCOc1ccc(/C=C2\SC(=S)N(CCC(=O)O)C2=O)cc1, the IC50 is reported as > 35.9 µM (inactive). OCCN(CCO)CC(O)COc1ccc(C23CC4CC(CC(C4)C2)C3)cc1 (stereo not drawn) was tested, and the IC50 was > 35.9 µM (inactive). With Cc1noc(/C=C/c2ccco2)c1S(=O)(=O)N1CCC(C(=O)Nc2ccc(Cl)cn2)CC1 the IC50 was > 35.9 µM (inactive). With COc1ccccc1-c1cc2nc(-c3ccccc3)cc(N3CCN(C(=O)c4ccco4)CC3)n2n1 the IC50 was “inactive”. CN(Cc1cnc2nc(N)nc(N)c2n1)c1ccc(C(=O)NC(CCC(=O)O)C(=O)O)c2ccccc12 (stereo not drawn) was tested, and the IC50 was > 35.9 µM (inactive). For CC(NC(=O)COC(=O)c1cccs1)c1ccccc1 (stereo not drawn), the IC50 was > 35.9 µM (inactive). C=CCNc1ncnc2ccc(Br)cc12 was tested, and the IC50 was 6.79 µM. COc1cc(C(=O)N/N=C(\c2ccccc2)c2ccccn2)cc(OC)c1OC was tested, and the IC50 was > 11.9 µM (inactive). In the case of CCc1ccc(-c2nc(CSCC(=O)NCc3ccco3)c(C)o2)cc1, the IC50 is reported as > 35.9 µM (inactive). With CN(Cc1cnc2nc(N)nc(N)c2n1)c1ccc(C(=O)NC(CCC(=O)O)C(=O)O)cc1 (stereo not drawn) the IC50 was > 35.9 µM (inactive). With Cc1ccc(NC(=O)CCC(=O)N/N=C/c2ccc(O)cc2O)cc1 the IC50 was “inactive”. With O=C(NC1CCCCC1)C(c1cccnc1)N(C(=O)CCl)c1cccc(Cl)c1 (stereo not drawn) the IC50 was 6.91 µM. With O=C(Nc1c(-c2ccccc2)[nH][nH]c1=O)c1cccc(C(F)(F)F)c1 the IC50 was > 35.8 µM (inactive). In the case of COc1ccc2[nH]c(=O)c(CN(CCN3CCCC3)C(=O)Nc3ccccc3Cl)cc2c1, the IC50 is reported as > 35.8 µM (inactive).
